The text below walks through data of patent US20250171392A1, “CRYSTALLIZATION OF 4-HYDROXYACETOPHENONE FROM ETHANOL AND ETHYL ACETATE” (SYMRISE AG, priority 2022, published 2025).

The nature of data set [1]: Solubility testing (dissolution time) of purified 4-hydroxyacetophenone (0.5 wt.-%) in cold water. It counts as physicochemical. Conditions: for Time needed until purified 4-HAP is fully dissolved: 0.5 wt.-% 4-HAP, 99.50 wt.-% water, solvent at 17.5-18.5° C., stirred at 500 rpm at 20-21° C.
The nature of data set [2]: Solubility testing (dissolution time) of purified 4-hydroxyacetophenone (0.5 wt.-%) in cold 1,2-pentanediol (3 wt.-%) and glycerin (5 wt.-%) in water. It counts as physicochemical. Conditions: for Time needed until purified 4-HAP is fully dissolved: 0.5 wt.-% 4-HAP, 3 wt.-% 1,2-pentanediol, 5 wt.-% glycerin (99.5%), 91.50 wt.-% water, solvent at 17.5-18.5° C., stirred at 500 rpm at 20-21° C.

In the next data set the test system is Aspergillus brasiliensis. The conditions noted are these: when used in cosmetics; Daily Chemical Industry: 2015, 45:269; cited from earlier work.
The next data set deals with Pseudomonas aeruginosa. The conditions noted are these: when used in cosmetics; Daily Chemical Industry: 2015, 45:269; cited from earlier work.
The nature of data set [3]: Solubility testing (dissolution time) of purified 4-hydroxyacetophenone (0.5 wt.-%) in cold 1,2-pentanediol (5 wt.-%) in water. It counts as physicochemical. The conditions noted are these: for Time needed until purified 4-HAP is fully dissolved: 0.5 wt.-% 4-HAP, 5 wt.-% 1,2-pentanediol, 94.50 wt.-% water, solvent at 17.5-18.5° C., stirred at 500 rpm at 20-21° C.

As to `CC(=O)c1ccc(O)cc1` [Example 10, 4-hydroxyacetophenone], the “Time needed until purified 4-HAP is fully dissolved” value in data set [1] turned out to be 67 min; in data set [2] it was 42 min.

Take `CC(=O)c1ccc(O)cc1` [4-hydroxyacetophenone]: in the data set with Aspergillus brasiliensis, the “ability to kill Aspergillus brasiliensis” value is given as “great ability to kill”. Moreover, the “ability to restrain Pseudomonas aeruginosa” value in the data set on Pseudomonas aeruginosa is “a certain ability to restrain”.

With `CC(=O)c1ccc(O)cc1` [Example 7, 4-hydroxyacetophenone], the results for the “Time needed until purified 4-HAP is fully dissolved” value in data set [1], in data set [3] and in data set [2] were 51 min, 36 min and 33 min, respectively.

On to `CC(=O)c1ccc(O)cc1` [Example 5, 4-hydroxyacetophenone], for which the “Time needed until purified 4-HAP is fully dissolved” value came to 35 min in data set [1], 26 min in data set [3] and 22 min in data set [2].

Regarding `CC(=O)c1ccc(O)cc1` [Example 3, 4-hydroxyacetophenone], the results for the “Time needed until purified 4-HAP is fully dissolved” value in data set [1], in data set [3] and in data set [2] were 35 min, 22 min and 30 min, respectively.

Consider `CC(=O)c1ccc(O)cc1` [Example 6, 4-hydroxyacetophenone], for which the “Time needed until purified 4-HAP is fully dissolved” value worked out at 35 min in data set [3] and 28 min in data set [2].

As to `CC(=O)c1ccc(O)cc1` [Example 8, 4-hydroxyacetophenone], the figures for the “Time needed until purified 4-HAP is fully dissolved” value in data set [1], in data set [3] and in data set [2] were 44 min, 29 min and 27 min, respectively.

In the case of `CC(=O)c1ccc(O)cc1` [Example 4, 4-hydroxyacetophenone], the figures for the “Time needed until purified 4-HAP is fully dissolved” value in data set [1], in data set [3] and in data set [2] were 41 min, 33 min and 24 min, respectively.

Regarding `CC(=O)c1ccc(O)cc1` [Example 1a, 4-hydroxyacetophenone], in data set [1], the “Time needed until purified 4-HAP is fully dissolved” value turned out to be 24 min and the “dissolution time in cold water (in words, compared with the other samples)” value is “by far the shortest dissolution time”. In addition, the “Time needed until purified 4-HAP is fully dissolved” value in data set [3] was found to be 12 min. Also, in data set [3] (cold 1,2-pentanediol (5 wt.-%) in water), the “dissolution time in cold 1,2-pentanediol (5 wt.-%) in water (in words, compared with the other samples)” value is reported as “by far the shortest dissolution time”. In data set [2], the “Time needed until purified 4-HAP is fully dissolved” value worked out at 15 min; the “dissolution time in cold 1,2-pentanediol (3 wt.-%) and glycerin (5 wt.-%) in water (in words, compared with the other samples)” value was “by far the shortest dissolution time”.

As to `CC(=O)c1ccc(O)cc1` [Example 9, 4-hydroxyacetophenone], the “Time needed until purified 4-HAP is fully dissolved” value was 29 min in data set [1], 17 min in data set [3] and 21 min in data set [2].

Take `CC(=O)c1ccc(O)cc1` [Example 1b, 4-hydroxyacetophenone]: in data set [1], the “Time needed until purified 4-HAP is fully dissolved” value amounted to 22 min and the “dissolution time in cold water (in words, compared with the other samples)” value is reported as “by far the shortest dissolution time”. For the same compound, in data set [2], the “Time needed until purified 4-HAP is fully dissolved” value worked out at 19 min; the “dissolution time in cold 1,2-pentanediol (3 wt.-%) and glycerin (5 wt.-%) in water (in words, compared with the other samples)” value is given as “by far the shortest dissolution time”.

As for `CC(=O)c1ccc(O)cc1` [Example 2, 4-hydroxyacetophenone], the “Time needed until purified 4-HAP is fully dissolved” value in data set [1] came out at 115 min; in data set [3], 56 min; in data set [2] it was 53 min.
